Reference: ChEMBL document CHEMBL3352019, “Recent developments in biological activities of chalcones: a mini review” (Eur J Med Chem, 2014)
Values after ≈ are worked out from the molar mass of the structure shown. One block for each molecule: values may come before it.

Tests used:
[1] = test system: Bacillus subtilis; assay: Antimicrobial activity against Bacillus subtilis; type: functional
[2] = test system: Penicillium chrysogenum; assay: Antimicrobial activity against Penicillium chrysogenum; type: functional
[3] = test system: Staphylococcus aureus; assay: Antimicrobial activity against Staphylococcus aureus by cup-plate agar diffusion method; type: functional
[4] = test system: Aspergillus niger; assay: Antimicrobial activity against Aspergillus niger by cup-plate agar diffusion method; type: functional
[5] = test system: Bacillus; assay: Antimicrobial activity against Bacillus coccus by cup-plate agar diffusion method; type: functional
[6] = test system: Klebsiella aerogenes; assay: Antimicrobial activity against Enterobacter aerogenes by cup-plate agar diffusion method; type: functional
[7] = test system: Staphylococcus epidermidis; assay: Antimicrobial activity against Staphylococcus epidermidis; type: functional
[8] = test system: Micrococcus luteus; assay: Antimicrobial activity against Micrococcus luteus; type: functional
[9] = test system: Staphylococcus aureus; assay: Antimicrobial activity against Staphylococcus aureus; type: functional
[10] = test system: Leishmania major; assay: Antiprotozoal activity against Leishmania major promastigote forms; type: functional, organism-based
[11] = test system: MDA-MB-231; assay: Anticancer activity against human MDA-MB-231 cells; type: functional, cell-based
[12] = test system: Rattus norvegicus; assay: Inhibition of inflammation in rat carrageenan-induced rat acute paw edema model; type: functional
[13] = test system: Aspergillus niger; assay: Antimicrobial activity against Aspergillus niger at 50 ug/mL; type: functional; conditions: read-out: IZ
[14] = test system: Rattus norvegicus; assay: Inhibition of inflammation in rat carrageenan-induced rat hind paw edema model; type: functional
[15] = Antioxidant activity assessed as […] free radical scavenging activity; type: physicochemical
[16] = test system: Escherichia coli; assay: Antimicrobial activity against Escherichia coli at 50 ug/mL; type: functional; conditions: read-out: IZ
[17] = test system: Bacillus subtilis; assay: Antimicrobial activity against Bacillus subtilis at 50 ug/mL; type: functional; conditions: read-out: IZ
[18] = test system: Bacillus pumilus; assay: Antimicrobial activity against Bacillus pumilus at 50 ug/mL; type: functional; conditions: read-out: IZ
[19] = test system: Plasmodium falciparum; assay: Antimalarial activity against Plasmodium falciparum K1; type: functional, organism-based
[20] = organism: Rattus norvegicus; assay: Inhibition of inflammation in rat cotton pellet-induced granuloma model; type: functional
[21] = test system: Escherichia coli; assay: Antimicrobial activity against Escherichia coli; type: functional
[22] = test system: Candida albicans; assay: Antimicrobial activity against Candida albicans; type: functional
[23] = test system: Plasmodium falciparum; assay: Antimalarial activity against Plasmodium falciparum asexual blood stage forms; type: functional, organism-based
[24] = Anticancer activity against human HSC3 cells; type: functional, cell-based; conditions: HSC-3
[25] = test system: Plasmodium falciparum; assay: Antimalarial activity against CQ-resistant Plasmodium falciparum W2; type: functional, organism-based

Molecule: C[C@]12CC[C@H]3[C@@H](CC=C4CC(O)CC[C@@]43C)[C@@H]1CC[C@@H]2C(=O)/C=C/c1ccccc1 (some centres undefined)
inhibition zone (IZ) [1]: 19 mm
inhibition zone (IZ) [2]: 10 mm

Molecule: O=C(/C=C/c1c(-c2ccc(Br)cc2)nc2ccccn12)c1ccc(Cl)cc1
inhibition zone (IZ) [3]: 19 mm

Molecule: Cc1ccc(C(=O)/C=C/c2c(-c3ccc(Br)cc3)nc3ccccn23)c(O)c1
inhibition zone (IZ) [4]: 20 mm
inhibition zone (IZ) [5]: 19 mm

Molecule: COc1ccc(C(=O)/C=C/c2c(-c3ccc(Br)cc3)nc3ccccn23)cc1
inhibition zone (IZ) [6]: 19 mm

MIC ([1]; Bacillus subtilis): 2000 µg/mL (≈ 5670 µM)
MIC [7]: 2000 µg/mL (≈ 5670 µM)
MIC [8]: 2000 µg/mL (≈ 5670 µM)
Molecule: COc1ccc(/C=C/C(=O)c2ccc(OC)c(CC=C(C)C)c2O)cc1

MIC [9]: 15.6 µg/mL (≈ 60.9 µM)
Molecule: O=C(/C=C/c1ccc(O)cc1)c1ccc(O)cc1O [ISOLIQUIRITIGENIN]

IC50 ([10]; Leishmania major): < 1 µM
Molecule: COc1ccc2c(c1)C=C(/C=C/C(=O)c1ccc(Cl)c(Cl)c1)CO2

IC50 [11]: 7.02 µM
Molecule: O=C(/C=C/c1cccc(Br)c1)C1=Cc2cc(Cl)ccc2OC1

Molecule: Cc1nc2ccc(Cl)cc2c(-c2ccccc2)c1C(=O)/C=C/c1ccco1
inhibition (INH) [12]: 81.78%

Molecule: MEGLUMINE ANTIMONATE
IC50 [10]: < 82 µM

Molecule: O=C(/C=C/c1cccc2ccccc12)c1ccc(Cl)cc1Cl
zone of inhibition at 50 µg/mL [13]: 12 mm

Molecule: O=C(/C=C/c1ccccc1)c1nn(-c2ccccc2)c(-c2ccccc2)c1S(=O)(=O)c1ccccc1
inhibition (INH) [14]: 83.77%

inhibition (INH) [15]: 89.64%
Molecule: C=CCc1ccc(/C=C/C(=O)c2cc(C)ccc2O)cc1O

Molecule: COc1ccc(/C=C/C(=O)c2ccc(Cl)cc2Cl)cc1
zone of inhibition at 50 µg/mL [16]: 15 mm
zone of inhibition at 50 µg/mL [17]: 13 mm
zone of inhibition at 50 µg/mL [18]: 8 mm

IC50 [19]: 7.4 µM
Molecule: COc1ccc(/C=C/C(=O)c2c(O)cccc2O)cc1

IC50 ([10]; Leishmania major): < 1 µM
Molecule: COc1ccc2c(c1)C=C(C(=O)/C=C/c1ccc(Cl)c(Cl)c1)CO2

Molecule: O=C(/C=C/c1ccc(F)cc1)c1ccc(O)cc1
inhibition (INH) [20]: 36.8%

Molecule: O=C(/C=C/c1ccccc1)N1N=C(c2ccc(Cl)cc2)CC1c1c2ccccc2cc2ccccc12 (centres undefined)
inhibition zone (IZ) [21]: 22 mm
inhibition zone (IZ) [22]: 12 mm

Molecule: COc1ccc(/C=C/C(=O)c2ccc(-n3cnc4ccccc43)cc2)c(OC)c1
IC50 [23]: 1.1 µg/mL (≈ 2.86 µM)

IC50 [24]: 4.9 µg/mL (≈ 17.2 µM)
Molecule: COc1cc(O)c(C(=O)/C=C/c2ccccc2)c(OC)c1 [FLAVOKAWAIN B]

Molecule: COc1ccc(/C=C/C(=O)c2ccccc2)cc1S(=O)(=O)N1CCOCC1
IC50 [25]: 2.06 µM

Molecule: C=CC(C)(C)c1cc(/C=C/C(=O)c2ccc(O)cc2)c(OC)cc1O [LICOAGROCHACONE A]
IC50 [23]: 1.43 µg/mL (≈ 4.23 µM)
